For one assay, the system named is HaCaT. The assay is described as follows: Inhibition of ultraviolet B-irradiation upregulated of prostaglandin E2 production in human HaCaT cells at 10 uM measured after 2 hrs by ELISA relative to control. Type of assay: functional, cell-based. For orientation: ELISA stands for enzyme-linked immunosorbent assay.
A short description of assay [1]: Inhibition of ultraviolet B-irradiation upregulated of prostaglandin E2 production in human HaCaT cells measured after 2 hrs by ELISA. Type of assay: functional, cell-based. The note with it: light or radiation study.

Activity calls are given as the source filed them. The calls are words filed in the database; no cut-off is given here.

Regarding `OCc1ccccc1O[C@@H]1O[C@H](CO)[C@@H](O)[C@H](O)[C@H]1O`, in the assay on HaCaT, the inhibition entry was “inactive”.
Take `CC(=O)Oc1ccccc1C(=O)O` [ASPIRIN]: the IC50 in assay [1] is 30.4 µM.
On to `CC(=O)O[C@@H]1C[C@](O)(C(=O)OCc2ccccc2O[C@@H]2O[C@H](CO)[C@@H](O)[C@H](O)[C@H]2O)C[C@@H](O)[C@H]1OC(=O)/C=C/c1ccccc1`, for which the inhibition entry in the assay on HaCaT was “Active”.
For `CC(=O)O[C@@H]1[C@H](OC(C)=O)C[C@@](OC(=O)/C=C/c2ccccc2)(C(=O)OCc2ccccc2O[C@@H]2O[C@H](CO)[C@@H](O)[C@H](O)[C@H]2O)C[C@H]1O[C@@H]1O[C@H](CO)[C@@H](O)[C@H](O)[C@H]1O`, the inhibition entry in the assay on HaCaT was “Active”.
With `COC(=O)[C@]1(O)C[C@@H](O)[C@@H](OC(=O)c2ccccc2)[C@H](O[C@@H]2O[C@@H](C)[C@H](O)[C@@H](O)[C@H]2O)C1`, the inhibition result with HaCaT is “Active”.
In assay [1], `Oc1ccc(/C=C/c2cc(O)cc(O)c2)cc1` [RESVERATROL] yielded an IC50 of 35.1 µM.
In the case of `CC(=O)O[C@@H]1C[C@](O)(C(=O)OCc2ccccc2O[C@@H]2O[C@H](CO)[C@@H](O)[C@H](O)[C@H]2O)C[C@@H](OC(C)=O)[C@H]1OC(=O)/C=C/c1ccccc1`, the IC50 in assay [1] was found to be 20.5 µM. This IC50 lies about 1.7-fold lower than the previous one.
The same measure, in the same setting: the figure for `COC(=O)[C@]1(O)C[C@@H](O)[C@@H](OC(=O)/C=C/c2ccccc2)[C@H](O)C1` is 28.8 µM.

One may read the IC50 as the concentration at which inhibition is half-maximal. Read a low IC50 as higher potency.
